# Like-named read-outs stand apart in the source and are kept apart here. Where a SMILES comes first, the peptide text is derived from it. The star is where a group is joined. Biotin = O=C1N[C@H]2[C@H](CS[C@H]2CCCCC(=O)*)N1; Ahx = NCCCCCC(=O)O
# Experiments:
# [1] = target: sAniA (Neisseria gonorrhoeae, UniProt Q02219); assay: biochemical
# Description: Biolayer Interferometry. […] Streptavidin (SA) biosensors (ForteBio) were loaded with C7-3Bio peptides for 10 min. Unloaded tips were used as a control. The sAniA samples were prepared in Kinetic Buffer in concentrations of 50, 100, 500, and 1000 nM. The baseline was established for 240 s and the association and dissociation steps were performed for 500 s. Experiments were performed in three biological replicates with the curve fitting using 2:1 (Heterogeneous Ligand) model and KD value calculations were completed using Octet Data Analysis (version 9).
# [2] = target: T1, sAniA (recombinant AniA nitrite reductase) (Neisseria gonorrhoeae, UniProt Q02219); assay: Inhibition of nitrite reductase activity of purified sAniA (fluorometric DAN nitrite assay); format: biochemical
# T1 construct: wild type protein which lacks the N-terminal palmitoylation signal, sAniA; 6xHis (C); made in house; host or cells: Escherichia coli BL21(DE3)
# Description: (§1) Measurements of Nitrite Reductase Activity with Purified AniA Variants. Enzymatic activity assessments with sAniA and AniA D137A H280A were performed based upon previous work (Boulanger and Murphy 2002, J Mol Biol 315:1111-27; Kakutani et al. 1981, J Biochem 89:463-72) but using a highly sensitive fluorometric assay for nitrite measurements that relies on the reaction of nitrite with 2,3-diaminonapthalene (DAN) to form the fluorescent product, 1-(H)-naphtothriazole (Misko et al. 1993, Anal Biochem 214:11-6). All reactions were conducted under anoxic or microoxic conditions. Fluorescence was measured at excitation of 360/40 nm and emission of 460/40 nm at a gain of 50 using a Synergy HT Plate Reader (BioTek). The sAniA and AniA D137AH280A activities are expressed as the mean reaction rate (nmoles of nitrite reduced/min/[…]) from at least ten independent experiments over the course of a nitrite utilization assay (Shewell et al. 2013, Biochem Biophys Res Commun 431:215-20).
# (§2) Determination of Peptides Inhibitory Concentrations Required to Reduce the Signal by 50% (IC50s). […] Nitrite measurements with DAN were performed as described above after pre-incubation of samples for 1 h at room temperature. Control reactions consisted of sAniA alone and AniA D137A H280A treated in the same manner as the experimental samples. Reactions were performed in at least twelve independent experiments. Percent inhibition was calculated using the formula % I=100*(1−(x−y)/(z−y)) where “x”, “y” and “z” are the concentrations of nitrite in samples containing sAniA incubated with synthetic peptides, AniA D137A H280A and sAniA, respectively. The data were analyzed with a nonlinear log(inhibitor) vs. response—variable slope (four parameters) curve-fitting technique (GraphPad) to obtain […]. All experiments were performed in at least ten independent trials.
# [3] = tested on: AniA nitrite reductase activity of intact N. gonorrhoeae FA1090 ΔaniA/PlacaniA cells; format: cell-based, Neisseria gonorrhoeae; details: for Inhibition of nitrite reductase activity of intact gonococci: FA1090 ΔaniA/PlacaniA
# Description: Whole Cell Nitrite Utilization Studies. The FA1090 ΔaniA/Plac::aniA and ΔaniA/Plac::D137AH280A were grown to OD600˜1.0, gently spun down, decanted and re-suspended in GCBL. […] Subsequently, 0.1 mM sodium nitrite was added and the samples were transferred into an anaerobic chamber. After 1 h, nitrite consumption was measured using Griess Reagent (Biotium) as previously described for N. gonorrhoeae nitrite reductase whole cell assay (Shewell et al. 2013, Biochem Biophys Res Commun 431:215-20). Absorbance values were measured at OD545 using a Synergy HT plate reader and nitrite concentration was assessed against a nitrite standard prepared in GCBL. Percent inhibition was calculated using the formula % 1=100*(1−(x−y)/(z−y)) where “x”, “y” and “z” are the concentrations of nitrite in samples containing FA1090 ΔaniA/PlacaniA incubated with synthetic peptides, ΔaniA/PlacaniA D137A H280A and ΔaniA/PlacaniA, respectively. Experiments were performed on at least three separate occasions and mean with SEM are reported.
# [4] = target: T2, sAniA (recombinant AniA nitrite reductase) (Neisseria gonorrhoeae, UniProt Q02219); assay: Inhibition of nitrite reductase activity of purified sAniA (fluorometric DAN nitrite assay); format: biochemical; details: peptide 0 to 100 μM, DAN nitrite consumption assay
# T2 construct: wild type protein which lacks the N-terminal palmitoylation signal, sAniA; 6xHis (C); made in house; host or cells: Escherichia coli BL21(DE3)
# T2 sequence (Q02219 whole entry, looked up): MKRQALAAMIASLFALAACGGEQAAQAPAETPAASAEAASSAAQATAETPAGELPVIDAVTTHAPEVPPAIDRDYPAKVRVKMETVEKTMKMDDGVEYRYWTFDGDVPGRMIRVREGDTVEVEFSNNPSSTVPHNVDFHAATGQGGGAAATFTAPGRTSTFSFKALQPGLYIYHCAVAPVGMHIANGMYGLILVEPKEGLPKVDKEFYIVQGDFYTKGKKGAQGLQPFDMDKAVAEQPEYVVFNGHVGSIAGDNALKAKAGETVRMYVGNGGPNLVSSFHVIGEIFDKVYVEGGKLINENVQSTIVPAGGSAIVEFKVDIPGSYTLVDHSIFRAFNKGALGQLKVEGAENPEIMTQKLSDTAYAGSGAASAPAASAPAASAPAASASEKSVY
# Description: as §1, §2
# [5] = target: T3, sAniA (Neisseria gonorrhoeae, UniProt Q02219); assay: Phage ELISA of phage-displayed peptides on sAniA-coated wells; format: binding; details: 10^10 PFU per well, absorbance at 450 nm
# T3 construct: wild type protein which lacks the N-terminal palmitoylation signal, sAniA; 6xHis (C); made in house; host or cells: Escherichia coli BL21(DE3)
# T3 sequence (Q02219 whole entry, looked up): T2 sequence (Q02219 whole entry, looked up)
# Description: Phage Enzyme-linked Immunosorbent Assay (Phage ELISA). Individual wells in 96-well transparent plates (Greiner-Bio) were coated with 100 μL of 100 μg/mL of sAniA suspended in 0.1 M NaHCO3pH 8.6 and incubated overnight at 4° C. in an airtight humidified box. After incubation, excess target solution was shaken out and wells were filled with 300 μL of blocking buffer (0.1 M NaHCO3pH 8.6, 5 mg/mL BSA). Following 2 h incubation at 4° C., blocking buffer was removed and wells were washed six times with 200 μL of TBST (50 mM Tris-HCl pH 8.6, 150 mM NaCl, 0.5% Tween). Isolated individual phage amplifications (10^10 PFU) in 100 μl of TBST were incubated at room temperature for 1 h with rocking. All wells were then cleared by shaking and washed six times with 200 μL of TBST. A solution containing Anti-M13 HRP linked-Monoclonal Antibodies (NEB) (1:5,000 dilution in blocking buffer) was distributed at 200 μL per well and incubated with rocking at room temperature for 1 h. Wells were washed six times with TBST and incubated with Turbo TMB-ELISA for 30 min with rocking at room temperature. To stop the reaction, finally 100 μL of 1.78 M H2SO4 was added to each well. […] Data from seven independent experiments are shown with mean and SEM
Compound,Kd [1] [nM],IC50 [2] [nM],Inhibition of nitrite reductase activity of intact gonococci ([3]; 0.6 mM peptide) [%],also measured
CC(C)C[C@H](NC(=O)[C@H](CC(N)=O)NC(=O)[C@H](CC(C)C)NC(=O)[C@H](CCCNC(=N)N)NC(=O)[C@H](CS)NC(=O)[C@H](Cc1ccc(O)cc1)NC(=O)[C@H](CC(N)=O)NC(=O)[C@H](CS)NC(=O)[C@H](C)NC(=O)CCCCCNC(=O)CCCC[C@@H]1SC[C@@H]2NC(=O)N[C@@H]21)C(=O)N[C@@H](Cc1c[nH]c2ccccc12)C(=O)NCC(=O)NCC(=O)NCC(=O)N[C@@H](CO)C(N)=O [C7-3Bio] ({Biotin-Ahx}-ACNYCRLNLWGGGS-NH2),775 ± 88.5,,,
CC(C)C[C@H](NC(=O)[C@H](CC(N)=O)NC(=O)[C@H](CC(C)C)NC(=O)[C@H](CCCNC(=N)N)NC(=O)[C@H](CS)NC(=O)[C@H](Cc1ccccc1)NC(=O)[C@H](CC(N)=O)NC(=O)[C@H](CS)NC(=O)[C@H](C)N)C(=O)N[C@@H](Cc1c[nH]c2ccccc12)C(=O)NCC(=O)NCC(=O)NCC(=O)N[C@@H](CO)C(N)=O [C7-3P] (H-ACNFCRLNLWGGGS-NH2),,> 105000,,
CC(C)C[C@H](NC(=O)[C@H](CC(N)=O)NC(=O)[C@H](CC(C)C)NC(=O)[C@H](CCCNC(=N)N)NC(=O)[C@H](CS)NC(=O)[C@H](Cc1ccc(O)cc1)NC(=O)[C@H](CC(N)=O)NC(=O)[C@H](CS)NC(=O)[C@H](C)N)C(=O)N[C@@H](Cc1c[nH]c2ccccc12)C(=O)NCC(=O)NCC(=O)NCC(=O)N[C@@H](CO)C(N)=O [C7-3] (H-ACNYCRLNLWGGGS-NH2),775 ± 88.5,10100,50,
CC(C)C[C@H](NC(=O)[C@H](CC(N)=O)NC(=O)[C@H](CC(C)C)NC(=O)[C@H](CCCNC(=N)N)NC(=O)[C@H](CS)NC(=O)[C@H](Cc1ccc(O)cc1)NC(=O)[C@H](CO)NC(=O)[C@H](CS)NC(=O)[C@H](C)N)C(=O)N[C@@H](Cc1c[nH]c2ccccc12)C(=O)NCC(=O)NCC(=O)NCC(=O)N[C@@H](CO)C(N)=O [C7-3mod2] (H-ACSYCRLNLWGGGS-NH2),,,90,Inhibition of nitrite reductase activity of intact gonococci ([3]; 0.3 mM peptide): 50%
H-ACNYSRLNLWGGGS-NH2 [C7-3mod1],,,,"Inhibition of AniA in intact gonococci (in words) ([3]; 0.15-0.6 mM tested, concentration not given): inhibited AniA moderately"
"H-KHYYGGDTTTLWGGGS-NH2 [12-5, synthetic version of the dodecameric phage-display hit 12-5]",,,,"Influence on AniA enzymatic activity (in words) [4]: did not influence AniA enzymatic activity; Effect on AniA activity of intact gonococci (in words) ([3]; highest tested concentration, 0.6 mM): no effect; Relative binding of phage-displayed peptide to sAniA (in words) [5]: best binding"

# Source: patent US10875890B2, “Peptide inhibitors targeting the Neisseria gonorrhoeae pivotal anaerobic respiration factor AniA” (priority 2017, dated 2020)
